The target of this assay is T1, human Smo (amino acids 181-787) (Homo sapiens, UniProt Q99835).
T1 construct: expressed in transfected cells; membrane preparation
The assay is described as follows: Smo radioligand competition binding assay (displacement of 3H-PF-03451358 from HEK293 membranes). To be noted: for inhibition at 0.05 µM: 0.05 μM test compound, displacement of 3H-PF-03451358, read-out: SMO % inh. @ 0.05 μM; for IC50: radioligand competition binding. How it is done:
Membranes were prepared from a stable cell line created in HEK293FlpIn-TetR cells (Invitrogen) using FIp recombinase-mediated insertion of the pSecTag-FRT/V5-His vector containing a cDNA encoding amino acids 181-787 of human Smo fused to the murine lgk leader sequence to produce a cell surface expressed Smo 181-781 protein. Hygromycin-resistant clones were obtained and stained for LacZ expression (no expression indicates a correct knock-in of my fusion cDNA). LacZ-negative cells were analyzed for binding tritiated Smo antagonist PF-03451358. For membrane preparation, the HEK293 cells expressing Smo 181-781 were grown to 90% confluence in nine to fifteen 245 mm×245 mm×22 mm dishes, washed with Dulbecco's PBS (15 ml per dish) and harvested via scraping in 10 ml of DPBS. The cells were collected and centrifuged at 1500 rpm (400×g) for 10 min at 4° C. The cell pellets were re-suspended in 40 ml of cold DPBS and washed by centrifugation at 2300 rpm (950×g max) for 10 minutes at 4° C. The supernatant was aspirated and the cell pellet was snap frozen in a methanol/dry ice bath and stored at −70° C. For membrane preparation, 15 ml of Membrane Preparation Buffer (50 mM Tris-HCl pH 7.5, 250 mM sucrose with Roche complete protease cocktail tablets) is added to the tube containing the cell pellet, then cells are rapidly thawed, and homogenized using an Ultra-Turrax T8 (IKA Labortechnik) set on “6” for 15 seconds for 5-6 times in icy water bath. This homogenate was diluted up to 50 ml using Membrane Preparation Buffer and centrifuged at 35,000 rpm in a Beckman Ti45 rotor (140,000×g) for 35 minutes at 4° C. followed by aspiration of the supernatant and re-suspension of the pellet in 5 ml of Assay Buffer (50 mM Tris-HCl pH 7.5, 100 mM NaCl, 25 mM MgCl2, 1 mM EDTA, and 0.1% protease free bovine serum albumin). The re-suspended pellet is then homogenized in a glass tissue grinder. The re-suspended membranes are aliquoted (0.5 ml aliquots), snap frozen and stored at −70° C. Total protein in the membrane preparation is determined using the Pierce BCA protein assay (Pierce Chemical).
For the binding competition assay, 100 μl of Assay Buffer is added to all the wells of a 96 well GF/B filter plate (Millipore MultiScreen-HTS-FB cat# MSFBN6B50) for 10 minutes to pre-wet the filter prior to evacuation of the buffer (8 inches Hg for 8 seconds). To the pre-wet wells is added: 20 μl of Assay Buffer, 10 μl diluted test agent, 20 μl of ^3H-PF-3451358 (15 nM stock solution), and 50 μl of membrane preparation (40 μg total protein per well). The plates are sealed and mixed at room temperature for 5 min, incubated at room temperature for 2 hours, then washed 5 times with 100 μl/each of wash buffer and vacuum dried for 8 seconds at 8 inch Hg. The plate is then dried for one hour in a 60° C. oven prior to the addition of 45 μl of Microscint 20 (Packard, #6013621) to each well and incubation at RT for 30 minutes to 1 hour. The plate is counted in a TopCount scintillation counter (Perkin Elmer).
Data analysis uses Excel for % Inhibition and Graphpad Prism for IC50 calculation. Total binding (TB, in the absence of inhibitors)=average of ^3H PF-03451358 3 nM+SMO membrane (40 μg/wells (approx 5000-7000 CPM). Non-specific binding (NSB)=average of ^3H PF-03451358 (3 nM)+cold PF-03451358 (30 μM)+SMO membrane (approx 600-1200 CPM). Specific binding (SB)=(total binding−non-specific binding). % Inhibition=[1−(compound Specific binding/control Specific binding)]×100%. IC50 is calculated by fitting the data to the four parameter sigmoidal dose-response curve (variable slope) Y=Bottom+(Top-Bottom)/(1+10̂((LogEC50−X)*HillSlope)). X is the logarithm of the inhibitor concentration. Y is the response; Y starts at Bottom and goes to Top with a sigmoid shape.
On the technique in general: Loss of bound radioactivity is the signal in a displacement assay; it reports binding, not function.

Here are results for 14 compounds from US20120157471A1, “BENZIMIDAZOLE DERIVATIVES” (PFIZER INC., priority 2009, published 2012).

T1 sequence (Q99835 181-787): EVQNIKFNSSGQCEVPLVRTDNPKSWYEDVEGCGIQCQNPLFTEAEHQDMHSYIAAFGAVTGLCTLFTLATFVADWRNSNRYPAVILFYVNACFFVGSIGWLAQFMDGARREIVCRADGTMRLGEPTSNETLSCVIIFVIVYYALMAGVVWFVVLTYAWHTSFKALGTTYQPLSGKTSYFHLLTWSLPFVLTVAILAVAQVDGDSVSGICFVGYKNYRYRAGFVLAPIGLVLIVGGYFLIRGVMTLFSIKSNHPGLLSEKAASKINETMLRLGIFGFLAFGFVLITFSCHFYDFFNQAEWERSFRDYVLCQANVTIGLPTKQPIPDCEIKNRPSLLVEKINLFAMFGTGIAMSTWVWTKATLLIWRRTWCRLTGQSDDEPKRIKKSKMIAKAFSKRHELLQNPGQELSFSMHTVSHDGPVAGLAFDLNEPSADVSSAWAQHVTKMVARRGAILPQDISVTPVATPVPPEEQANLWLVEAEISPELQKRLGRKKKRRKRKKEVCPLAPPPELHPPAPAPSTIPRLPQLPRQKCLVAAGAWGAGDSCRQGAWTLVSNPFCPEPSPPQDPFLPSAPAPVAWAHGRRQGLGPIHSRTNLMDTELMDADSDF

With `CC(=O)NC1CCN(c2cc(-c3nc4ccccc4n3C)c(Cl)cn2)C1` (stereo in doubt) [Example A-134, N-{(3S)-1-[5-chloro-4-(1-methyl-1H-benzimidazol-2-yl)pyridin-2-yl]pyrrolidin-3-yl}acetamide], the inhibition at 0.05 µM was found to be 48%. With `Cn1c(-c2cc(N3CCC(C(=O)O)CC3)ncc2Cl)nc2ccccc21` [Example A-7, 1-[5-chloro-4-(1-methyl-1H-benzimidazol-2-yl)pyridin-2-yl]piperidine-4-carboxylic acid], the inhibition at 0.05 µM is 39%.

On to `Cn1c(-c2cc(N3CCC(S(C)(=O)=O)CC3)ncc2Cl)nc2cccnc21` [Example A-37, 2-{5-chloro-2-[4-(methylsulfonyl)piperidin-1-yl]pyridin-4-yl}-3-methyl-3H-imidazo[4,5-b]pyridine], for which the inhibition at 0.05 µM was 67% and the IC50 (as a rule, the point on the concentration scale where inhibition reaches its midpoint) came to 247 nM.

On to `COC1CCN(c2cc(-c3nc4cccnc4n3C)c(Cl)cn2)CC1` [Example A-38, 2-[5-chloro-2-(4-methoxypiperidin-1-yl)pyridin-4-yl]-3-methyl-3H-imidazo[4,5-b]pyridine], for which the inhibition at 0.05 µM turned out to be 51% and the IC50 was 463 nM. Take `CC(=O)N1CCN(c2cc(-c3nc4cccnc4n3C)c(Cl)cn2)CC1` [Example A-40, 2-[2-(4-acetylpiperazin-1-yl)-5-chloropyridin-4-yl]-3-methyl-3H-imidazo[4,5-b]pyridine]: the inhibition at 0.05 µM came out at 66% and the IC50 was determined as 158 nM. With `Cn1c(-c2cc(N3CC(c4ncc[nH]4)C3)ncc2Cl)nc2ccccc21` [Example A-133, 2-{5-chloro-2-[3-(1H-imidazol-2-yl)azetidin-1-yl]pyridin-4-yl}-1-methyl-1H-benzimidazole], the inhibition at 0.05 µM came to 48%. As to `Cc1nccn1CC1(O)CCN(c2cc(-c3nc4ccccc4n3C)c(Cl)cn2)C1` (stereo not drawn) [Example A-135, 1-[5-chloro-4-(1-methyl-1H-benzimidazol-2-yl)pyridin-2-yl]-3-[(2-methyl-1H-imidazol-1-yl)methyl]pyrrolidin-3-ol], the inhibition at 0.05 µM worked out at 46%.

Turning to `Cn1c(-c2cc(N3CCC(O)(CN4CCCC4=O)C3)ncc2Cl)nc2ccccc21` (stereo not drawn) [Example A-136, 1-({1-[5-chloro-4-(1-methyl-1H-benzimidazol-2-yl)pyridin-2-yl]-3-hydroxypyrrolidin-3-yl}methyl)pyrrolidin-2-one], the inhibition at 0.05 µM was determined as 46%. In the case of `CN1CCN(C2COCCN(c3cc(-c4nc5ccccc5n4C)c(Cl)cn3)C2)CC1` (stereo not drawn) [Example A-137, 2-{5-chloro-2-[6-(4-methylpiperazin-1-yl)-1,4-oxazepan-4-yl]pyridin-4-yl}-1-methyl-1H-benzimidazole], the inhibition at 0.05 µM amounted to 45%. Turning to `Cn1cnnc1C1CCCN(c2cc(-c3nc4ccccc4n3C)c(Cl)cn2)C1` (stereo not drawn) [Example A-138, 2-{5-chloro-2-[3-(4-methyl-4H-1,2,4-triazol-3-yl)piperidin-1-yl]pyridin-4-yl}-1-methyl-1H-benzimidazole], the inhibition at 0.05 µM came to 45%. In the case of `Cn1c(-c2cc(N3CC(c4cccnn4)C3)ncc2Cl)nc2ccccc21` [Example A-139, 2-[5-chloro-2-(3-pyridazin-3-ylazetidin-1-yl)pyridin-4-yl]-1-methyl-1H-benzimidazole], the inhibition at 0.05 µM came out at 42%. As to `Cn1c(-c2cc(N3CCC(O)(c4ncccn4)C3)ncc2Cl)nc2ccccc21` (stereo not drawn) [Example A-140, 1-[5-chloro-4-(1-methyl-1H-benzimidazol-2-yl)pyridin-2-yl]-3-pyrimidin-2-ylpyrrolidin-3-ol], the inhibition at 0.05 µM stood at 42%. On to `Cn1c(-c2cc(NCCN)ncc2Cl)nc2ccccc21` [Example A-142, N-[5-chloro-4-(1-methyl-1H-benzimidazol-2-yl)pyridin-2-yl]ethane-1,2-diamine], for which the inhibition at 0.05 µM turned out to be 44%. In the case of `Cn1c(-c2cc(NCCS(C)(=O)=O)ncc2Cl)nc2ccccc21` [Example A-167, 5-chloro-4-(1-methyl-1H-benzimidazol-2-yl)-N-[2-(methylsulfonyl)ethyl]pyridin-2-amine], the inhibition at 0.05 µM was 64% and the IC50 came to 287 nM.
